In patent US20260041679A1, “METHOD OF TREATING HYPERTENSION WITH THE ALDOSTERONE SYNTHASE INHIBITOR BAXDROSTAT” (CINCOR PHARMA, INC., priority 2022, published 2026):

System: patients with uHTN
Assay: Study 124 Part 1: seated SBP in patients with uncontrolled hypertension (Example 9)
Type: in vivo, human
Design: key to Model-Based Least-Squares Mean Change from Baseline (SBP) / LSMEANS change from baseline (SBP) / Model-Based Least-Square Mean Change from Baseline (SBP): LS mean change from baseline in seated SBP, mmHg
Protocol: Study 124 is a double-blind, placebo-controlled, dose range finding, multicenter study conducted in patients with uHTN receiving background antihypertensive agent(s) that are either an ACEI or an ARB, an ACEI/ARB plus a thiazide diuretic, or an ACEI/ARB plus a calcium channel blocker. The study consists of two parts: Part 1 consists of an 8-week treatment period in which the patients are to be assigned to one of 4 dose groups in equal ratio testing 0.5 mg, 1 mg, and 2 mg baxdrostat effects compared to a placebo. Patients are to administer double-blind baxdrostat tablets once per day while they continue taking the background antihypertensive medications. After 8 weeks of double-blind treatment, patients were to enter part 2 of the study unless the patient was assigned to the 2 mg group and the SBP remains ≥130 mmHg. In part 2 of the study, all patients are to cease dosing with background antihypertensive medication and take only baxdrostat 2 mg dose as a monotherapy for 4 weeks.
Key inclusion criteria include that patients are on a stable regimen of anti-hypertensive agents for at least 8 weeks; and have a seated BP≥140 mmHg. Key exclusion criteria include a seated SBP≥180 mmHg and estimated glomerular filtration rate (eGFR)<30 mL/min/1.73 m^2.
In this table, CI=confidence interval, DBP=diastolic blood pressure, LS=least squares, SBP=systolic blood pressure, SE=standard error. The LS means, CIs, and p-values are from an MMRM model with change from baseline as the dependent variable with randomized treatment, visit, and treatment-by-visit interaction as fixed categorical effects; along with covariates of the baseline value, race (African American versus non-African American), and the type of background antihypertensive regimen. The restricted maximum likelihood estimation (REML) approach will be used with an unstructured covariance matrix and the Kenward-Roger approximation for degrees of freedom.

[1] = 0.5 mg (N = 11), mITT Population for Compliance for Black Patients
[2] = 0.5 mg (N = 11), mITT, Female Non-Hispanic Female Patients
[3] = 0.5 mg (N = 12), mITT, Non-Hispanic Male Patients
[4] = 0.5 mg (N = 15), mITT, Hispanic Male Patients
[5] = 1 mg (N = 11), mITT, Female Non-Hispanic Female Patients
[6] = 1 mg (N = 13), mITT Population for Compliance for Black Patients
[7] = 1 mg (N = 14), mITT, Female Hispanic/Latino Patients
[8] = 1 mg (N = 14), mITT, Hispanic Male Patients
[9] = 1 mg (N = 22), mITT, Non-Hispanic Male Patients

What does the source list for `CCC(=O)N[C@@H]1CCCc2c(-c3ccc4c(c3)CCC(=O)N4C)cncc21` [baxdrostat, (R)—N-(4-(1-methyl-2-oxo-1,2,3,4-tetrahydroquinolin-6-yl)-5,6,7,8-tetrahydroisoquinolin-8-yl) propionamide]?
SBP Change from Baseline to Week 8, Mean (0.5 mg): −17.0 mmHg; SBP Change from Baseline to Week 8, Median (0.5 mg): −17.0 mmHg; SBP at Week 8, Median (0.5 mg): 127.0 mmHg; Model-Based Least-Square Mean Change from Baseline (SBP) (0.5 mg (N = 11), Week 2, mITT Population for Compliance for Black Patients): −9.0; Model-Based Least-Squares Mean Change from Baseline (SBP) (0.5 mg (N = 11), Week 2, mITT, Female Non-Hispanic Female Patients): −12.5; Model-Based Least-Square Mean Change from Baseline (SBP) (0.5 mg (N = 11), Week 4, mITT Population for Compliance for Black Patients): −11.6; Model-Based Least-Squares Mean Change from Baseline (SBP) (0.5 mg (N = 11), Week 4, mITT, Female Non-Hispanic Female Patients): −12.2; Model-Based Least-Square Mean Change from Baseline (SBP) (0.5 mg (N = 11), Week 6, mITT Population for Compliance for Black Patients): −13.0; Model-Based Least-Squares Mean Change from Baseline (SBP) (0.5 mg (N = 11), Week 6, mITT, Female Non-Hispanic Female Patients): −11.8; Model-Based Least-Square Mean Change from Baseline (SBP) (0.5 mg (N = 11), Week 8, mITT Population for Compliance for Black Patients): −17.2; Model-Based Least-Squares Mean Change from Baseline (SBP) (0.5 mg (N = 11), Week 8, mITT, Female Non-Hispanic Female Patients): −16.7; Comp w/ Placebo at Week 6, Diff (95% CI) [1]: −2.6 (−14.94, 9.64); Comp w/ Placebo at Week 8, Diff (95% CI) [1]: −3.0 (−13.58, 7.49); Comp w/ Placebo at Week 6, Diff (95% CI) [2]: −1.5 (−13.92, 10.84); Comp w/ Placebo at Week 8, Diff (95% CI) [2]: −3.7 (−13.14, 5.67); Model-Based Least-Squares Mean Change from Baseline (SBP) (0.5 mg (N = 12), Week 2, mITT, Non-Hispanic Male Patients): −19.9; Model-Based Least-Squares Mean Change from Baseline (SBP) (0.5 mg (N = 12), Week 4, mITT, Non-Hispanic Male Patients): −20.5; Model-Based Least-Squares Mean Change from Baseline (SBP) (0.5 mg (N = 12), Week 6, mITT, Non-Hispanic Male Patients): −16.3; Model-Based Least-Squares Mean Change from Baseline (SBP) (0.5 mg (N = 12), Week 8, mITT, Non-Hispanic Male Patients): −17.2; Comp w/ Placebo at Week 6, Diff (95% CI) [3]: −6.4 (−17.23, 4.48); Comp w/ Placebo at Week 8, Diff (95% CI) [3]: −2.2 (−12.46, 8.04); Model-Based Least-Squares Mean Change from Baseline (SBP) (0.5 mg (N = 15), Week 2, mITT, Hispanic Male Patients): −8.3; Model-Based Least-Squares Mean Change from Baseline (SBP) (0.5 mg (N = 15), Week 4, mITT, Hispanic Male Patients): −12.6; Model-Based Least-Squares Mean Change from Baseline (SBP) (0.5 mg (N = 15), Week 6, mITT, Hispanic Male Patients): −16.0; Model-Based Least-Squares Mean Change from Baseline (SBP) (0.5 mg (N = 15), Week 8, mITT, Hispanic Male Patients): −18.6; Comp w/ Placebo at Week 6, Diff (95% CI) [4]: −4.7 (−12.73, 3.30); Comp w/ Placebo at Week 8, Diff (95% CI) [4]: 0.1 (−6.20, 6.41); SBP at Week 8, Mean (0.5 mg QD, mITT): 129.1 mmHg; SBP LS mean change from baseline (SE), MMRM (0.5 mg, Week 8): −17 (1.63) mm Hg; SBP LS mean difference (SE) vs placebo (0.5 mg, Week 8): −0.5 (2.21) mmHg; LS Mean Change from Baseline (SE) in SBP (0.5 mg, Wk 2): −10.3 (1.61) mm Hg; LS Mean Change from Baseline (SE) in SBP (0.5 mg, Wk 4): −14.2 (1.61) mm Hg; LS Mean Change from Baseline (SE) in SBP (0.5 mg, Wk 6): −13.5 (1.88) mm Hg; SBP Change from Baseline to Week 8, Mean (1 mg): −16.6 mmHg; SBP Change from Baseline to Week 8, Median (1 mg): −16.0 mmHg; SBP at Week 8, Median (1 mg): 128.0 mmHg; Model-Based Least-Squares Mean Change from Baseline (SBP) (1 mg (N = 11), Week 2, mITT, Female Non-Hispanic Female Patients): −11.8; Model-Based Least-Squares Mean Change from Baseline (SBP) (1 mg (N = 11), Week 4, mITT, Female Non-Hispanic Female Patients): −13.5; Model-Based Least-Squares Mean Change from Baseline (SBP) (1 mg (N = 11), Week 6, mITT, Female Non-Hispanic Female Patients): −20.3; Model-Based Least-Squares Mean Change from Baseline (SBP) (1 mg (N = 11), Week 8, mITT, Female Non-Hispanic Female Patients): −23.8; Comp w/ Placebo at Week 6, Diff (95% CI) [5]: −10.0 (−22.06, 2.15); Comp w/ Placebo at Week 8, Diff (95% CI) [5]: −10.8 (−20.05, −1.63); Model-Based Least-Square Mean Change from Baseline (SBP) (1 mg (N = 13), Week 2, mITT Population for Compliance for Black Patients): −8.9; Model-Based Least-Square Mean Change from Baseline (SBP) (1 mg (N = 13), Week 4, mITT Population for Compliance for Black Patients): −11.8; Model-Based Least-Square Mean Change from Baseline (SBP) (1 mg (N = 13), Week 6, mITT Population for Compliance for Black Patients): −13.5; Model-Based Least-Square Mean Change from Baseline (SBP) (1 mg (N = 13), Week 8, mITT Population for Compliance for Black Patients): −17.4; Comp w/ Placebo at Week 6, Diff (95% CI) [6]: −3.1 (−14.59, 8.31); Comp w/ Placebo at Week 8, Diff (95% CI) [6]: −3.2 (−12.88, 6.52); Model-Based Least-Squares Mean Change from Baseline (SBP) (1 mg (N = 14), Week 2, mITT, Female Hispanic/Latino Patients): −7.8; Model-Based Least-Squares Mean Change from Baseline (SBP) (1 mg (N = 14), Week 2, mITT, Hispanic Male Patients): −7.0; Model-Based Least-Squares Mean Change from Baseline (SBP) (1 mg (N = 14), Week 4, mITT, Female Hispanic/Latino Patients): −10.3; Model-Based Least-Squares Mean Change from Baseline (SBP) (1 mg (N = 14), Week 4, mITT, Hispanic Male Patients): −6.4; Model-Based Least-Squares Mean Change from Baseline (SBP) (1 mg (N = 14), Week 6, mITT, Female Hispanic/Latino Patients): −12.6; Model-Based Least-Squares Mean Change from Baseline (SBP) (1 mg (N = 14), Week 6, mITT, Hispanic Male Patients): −9.2; Model-Based Least-Squares Mean Change from Baseline (SBP) (1 mg (N = 14), Week 8, mITT, Female Hispanic/Latino Patients): −12.7; Model-Based Least-Squares Mean Change from Baseline (SBP) (1 mg (N = 14), Week 8, mITT, Hispanic Male Patients): −15.8; Comp w/ Placebo at Week 6, Diff (95% CI) [7]: −6.2 (−19.55, 7.07); Comp w/ Placebo at Week 8, Diff (95% CI) [7]: 6.4 (−5.38, 18.10); Comp w/ Placebo at Week 6, Diff (95% CI) [8]: 2.1 (−6.16, 10.29); Comp w/ Placebo at Week 8, Diff (95% CI) [8]: 2.9 (−3.41, 9.25); Model-Based Least-Squares Mean Change from Baseline (SBP) (1 mg (N = 22), Week 2, mITT, Non-Hispanic Male Patients): −6.8; Model-Based Least-Squares Mean Change from Baseline (SBP) (1 mg (N = 22), Week 4, mITT, Non-Hispanic Male Patients): −10.3; Model-Based Least-Squares Mean Change from Baseline (SBP) (1 mg (N = 22), Week 6, mITT, Non-Hispanic Male Patients): −14.2; Model-Based Least-Squares Mean Change from Baseline (SBP) (1 mg (N = 22), Week 8, mITT, Non-Hispanic Male Patients): −14.7; Comp w/ Placebo at Week 6, Diff (95% CI) [9]: −4.3 (−13.56, 5.00); Comp w/ Placebo at Week 8, Diff (95% CI) [9]: 0.2 (−8.82, 9.26); SBP at Week 8, Mean (1 mg QD, mITT): 130.8 mmHg; SBP LS mean change from baseline (SE), MMRM (1 mg, Week 8): −16 (1.62) mm Hg; SBP LS mean difference (SE) vs placebo (1 mg, Week 8): 0.6 (2.20) mmHg; LS Mean Change from Baseline (SE) in SBP (1 mg, Wk 2): −7.7 (1.6) mm Hg; LS Mean Change from Baseline (SE) in SBP (1 mg, Wk 4): −9.7 (1.59) mm Hg
